Test results as given in US11505521B2 (Biothea Pharma, Inc., priority 2018, dated 2022).
Where two headings read alike, the source gives them in different places.

Experiments:
[1] = sublingual tablet of Example 3, 10 mg epinephrine base, receptor pH 7.4, 37° C.
Protocol: The in-vitro permeability of the pharmaceutical compositions of Example 3 were tested. The tests were conducted using drug transdermal diffusion test instruments (Brand Huanghai, Model No. RJY-6B), Sartorius balances (Model SQP), an INESA pH meter (Model PHS-3E), a Thermo HPLC (UltiMate 3000 System, UV Wavelength: 205 nm), and Phenomenex Luna columns (5 μm C18 (2), 4.6×250 mm). The column temperature was 40° C. and the autosampler temperature was room temperature. The injection volume was 5 μL.
(§1) Mobile Phase A was prepared by weighing 4.0 g tetramethylammonium bisulfate (MERYER, Batch No. 77957139) and 1.1 sodium 1-heptasulfonate (Admas-beta, Batch No. P1343755), and transferring the materials to a flask. 2 mL of 0.1 mol/L EDTA solution (Brand: Sinopharm Chemical Reagent Co., Ltd., Batch No. 20150410) was added to the flask and the volume was adjusted to 950 mL using water. The solution was mixed and adjusted to a pH of 3.5 with 0.1N sodium hydroxide solution (Brand: Enox, Batch No. 20161201). Mobile Phase B was prepared using methanol. The isocratic elution was used in a proportion of A/B of 85/15. The run time was 10 minutes.
The in vitro diffusion of epinephrine salts were evaluated using Franz cells with an OD of 20 mm and reservoir volume of 7 mL. Dialysis membranes (Spectra/Por® dialysis membranes with 1,000 Da MWCO) were used to simulate sublingual mucous membrane in the vitro permeability tests. The assay content of the active components was detected in receiving pools. A receptor chamber with a magnetic stirrer was filled with phosphate buffer solution (pH 7.4) as the diffusion medium. The water bath was set at 37° C., and water was circulated in the Franz cells.
Each tablet was placed at the center of the donor chamber on the membrane at T0, and 2 mL of the artificial saliva (Brand: Biomart, Brand No. GL0305) was added to facilitate tablet disintegration and dissolution. Aliquots of 1 mL were withdrawn from the receptor chamber at 10, 30, 60, 90, and 120 min. The volumes withdrawn were replenished with fresh medium. Samples were transferred to HPLC vials for HPLC analysis.

[2] = Protocol: The stability of the pharmaceutical compositions of Example 3 were tested. The stability studies were conducted on packaged epinephrine salts at 25° C./RH 60% and 40° C./RH 75% conditions, as well as samples without packaging and exposed to light (4500 Lux) for one month. The appearance, assay content, and related substances were examined at 5, 7, 14 and 30 days.
(§2) The assay content was tested using Sartorius balances (Model SQP), an INESA pH meter (Model PHS-3E), a Thermo HPLC (UltiMate 3000 System, UV Wavelength: 205 nm), and Phenomenex Luna columns (5 μm C18 (2), 4.6×250 mm). The column temperature was 40° C., and the autosampler temperature was room temperature. The injection volume was 5 μL.
as §1
The assay content was analyzed by dissolving 20 mg of each sample to be examined in 50 mL of Mobile Phase A (0.4 mg/mL) as assay test solution. The sample was used and tested right after it was ready and was protected from light.
as §2, with “purity” for “assay content”, “PhenomenexSynergi” for “Phenomenex Luna”, “(4” for “(5”, “Polar-RP 80 A 250×4.6” for “C18 (2), 4.6×250”, “30°” for “40°”
Mobile Phase A was prepared by weighing 1.136 g of potassium dihydrogen orthophosphate (Brand: CNW, Batch No. A1040040) and 1.74 g of dipotassium hydrogen orthophosphate (Brand: Ourchem, Batch No. 20160219) and transferring into 1000 mL of water. The pH was adjusted to 3.0±0.05 with orthophosphoric acid (Brand: Ourchem, Batch No. 4112K060). The solution was filtered through a 0.45 μm membrane and degassed. Mobile Phase B was prepared using methanol. The run time was 50 minutes.
The purity was analyzed by dissolving 10 mg of each sample to be examined in 25 mL of Mobile Phase A (0.4 mg/mL) as purity and related substance test solution. The sample was used and tested right after it was ready and was protected from light.

[3] = light 4500 Lux, under air, 0 days
[4] = light 4500 Lux, under air, 5 days
[5] = light 4500 Lux, under air, 7 days
[6] = light 4500 Lux, under air, 14 days
[7] = light 4500 Lux, under air, 30 days

**Q.** Which “Diffusion content (%) 120 min” value [1] does the source give for CNC[C@H](O)c1ccc(O)c(O)c1 [epinephrine malonate] here?
**A.** 57.5%

**Q.** And the Appearance ([2]; 25° C./60% RH, 0 days)?
**A.** Off-white

**Q.** What about the “Content (%)” value ([2]; 25° C./60% RH, 0 days) of the same molecule?
**A.** 100.00%

**Q.** And the “Related substance (%)” value ([2]; 25° C./60% RH, 0 days)?
**A.** 0.01%

**Q.** And the Appearance ([2]; 25° C./60% RH, 5 days)?
**A.** Off-white

**Q.** What about the “Content (%)” value ([2]; 25° C./60% RH, 5 days) of the same molecule?
**A.** 99.94%

**Q.** And the “Related substance (%)” value ([2]; 25° C./60% RH, 5 days)?
**A.** 0.02%

**Q.** What about the Appearance ([2]; 25° C./60% RH, 7 days) of the same molecule?
**A.** Off-white

**Q.** What about the “Content (%)” value ([2]; 25° C./60% RH, 7 days) of the same molecule?
**A.** 99.62%

**Q.** And the “Related substance (%)” value ([2]; 25° C./60% RH, 7 days)?
**A.** 0.02%

**Q.** And the Appearance ([2]; 25° C./60% RH, 14 days)?
**A.** Off-white

**Q.** And the “Content (%)” value ([2]; 25° C./60% RH, 14 days)?
**A.** 98.81%

**Q.** And the “Related substance (%)” value ([2]; 25° C./60% RH, 14 days)?
**A.** 0.05%

**Q.** And the Appearance ([2]; 25° C./60% RH, 30 days)?
**A.** Off-white

**Q.** And the “Content (%)” value ([2]; 25° C./60% RH, 30 days)?
**A.** 100.64%

**Q.** And the “Related substance (%)” value ([2]; 25° C./60% RH, 30 days)?
**A.** 0.05%

**Q.** And the Appearance ([2]; 40° C./75% RH, 0 days)?
**A.** Off-white

**Q.** And the “Content (%)” value ([2]; 40° C./75% RH, 0 days)?
**A.** 100.00%

**Q.** And the “Related substance (%)” value ([2]; 40° C./75% RH, 0 days)?
**A.** 0.01%

**Q.** What about the Appearance ([2]; 40° C./75% RH, 5 days) of the same molecule?
**A.** Off-white

**Q.** And the “Content (%)” value ([2]; 40° C./75% RH, 5 days)?
**A.** 100.25%

**Q.** And the “Related substance (%)” value ([2]; 40° C./75% RH, 5 days)?
**A.** 0.03%

**Q.** What about the Appearance ([2]; 40° C./75% RH, 7 days) of the same molecule?
**A.** Off-white

**Q.** And the “Content (%)” value ([2]; 40° C./75% RH, 7 days)?
**A.** 101.64%

**Q.** What about the “Related substance (%)” value ([2]; 40° C./75% RH, 7 days) of the same molecule?
**A.** 0.02%

**Q.** What about the Appearance ([2]; 40° C./75% RH, 14 days) of the same molecule?
**A.** Off-white

**Q.** What about the “Content (%)” value ([2]; 40° C./75% RH, 14 days) of the same molecule?
**A.** 99.63%

**Q.** And the “Related substance (%)” value ([2]; 40° C./75% RH, 14 days)?
**A.** 0.08%

**Q.** What about the Appearance ([2]; 40° C./75% RH, 30 days) of the same molecule?
**A.** Off-white

**Q.** And the “Content (%)” value ([2]; 40° C./75% RH, 30 days)?
**A.** 99.87%

**Q.** What about the “Related substance (%)” value ([2]; 40° C./75% RH, 30 days) of the same molecule?
**A.** 0.11%

**Q.** What about the Appearance [2, 3] of the same molecule?
**A.** Off-white

**Q.** And the “Content (%)” value [2, 3]?
**A.** 100.00%

**Q.** What about the “Related substance (%)” value [2, 3] of the same molecule?
**A.** 0.01%

**Q.** What about the Appearance [2, 4] of the same molecule?
**A.** Off-white

**Q.** What about the “Content (%)” value [2, 4] of the same molecule?
**A.** 99.81%

**Q.** What about the “Related substance (%)” value [2, 4] of the same molecule?
**A.** 0.03%

**Q.** And the Appearance [2, 5]?
**A.** Off-white

**Q.** What about the “Content (%)” value [2, 5] of the same molecule?
**A.** 98.76%

**Q.** And the “Related substance (%)” value [2, 5]?
**A.** 0.03%

**Q.** And the Appearance [2, 6]?
**A.** Off-white

**Q.** What about the “Content (%)” value [2, 6] of the same molecule?
**A.** 99.83%

**Q.** And the “Related substance (%)” value [2, 6]?
**A.** 0.06%

**Q.** What about the Appearance [2, 7] of the same molecule?
**A.** Off-white

**Q.** What about the “Content (%)” value [2, 7] of the same molecule?
**A.** 100.64%

**Q.** What about the “Related substance (%)” value [2, 7] of the same molecule?
**A.** 0.04%

**Q.** What does the source list for epinephrine maleate?
**A.** Diffusion content (%) 120 min [1]: 63.5%; Appearance ([2]; 25° C./60% RH, 0 days): Off-white; Content (%) ([2]; 25° C./60% RH, 0 days): 100.00%; Related substance (%) ([2]; 25° C./60% RH, 0 days): 0.17%; Appearance ([2]; 25° C./60% RH, 5 days): Off-white; Content (%) ([2]; 25° C./60% RH, 5 days): 99.50%; Related substance (%) ([2]; 25° C./60% RH, 5 days): 0.18%; Appearance ([2]; 25° C./60% RH, 7 days): Off-white; Content (%) ([2]; 25° C./60% RH, 7 days): 99.97%; Related substance (%) ([2]; 25° C./60% RH, 7 days): 0.17%; Appearance ([2]; 25° C./60% RH, 14 days): Off-white; Content (%) ([2]; 25° C./60% RH, 14 days): 99.43%; Related substance (%) ([2]; 25° C./60% RH, 14 days): 0.16%; Appearance ([2]; 25° C./60% RH, 30 days): Off-white; Content (%) ([2]; 25° C./60% RH, 30 days): 100.69%; Related substance (%) ([2]; 25° C./60% RH, 30 days): 0.17%; Appearance ([2]; 40° C./75% RH, 0 days): Off-white; Content (%) ([2]; 40° C./75% RH, 0 days): 100.00%; Related substance (%) ([2]; 40° C./75% RH, 0 days): 0.17%; Appearance ([2]; 40° C./75% RH, 5 days): Off-white; Content (%) ([2]; 40° C./75% RH, 5 days): 99.30%; Related substance (%) ([2]; 40° C./75% RH, 5 days): 0.17%; Appearance ([2]; 40° C./75% RH, 7 days): Off-white; Content (%) ([2]; 40° C./75% RH, 7 days): 97.76%; Related substance (%) ([2]; 40° C./75% RH, 7 days): 0.18%; Appearance ([2]; 40° C./75% RH, 14 days): Off-white; Content (%) ([2]; 40° C./75% RH, 14 days): 99.24%; Related substance (%) ([2]; 40° C./75% RH, 14 days): 0.16%; Appearance ([2]; 40° C./75% RH, 30 days): Off-white; Content (%) ([2]; 40° C./75% RH, 30 days): 100.19%; Related substance (%) ([2]; 40° C./75% RH, 30 days): 0.16%; Appearance [2, 3]: Off-white; Content (%) [2, 3]: 100.00%; Related substance (%) [2, 3]: 0.17%; Appearance [2, 4]: Off-white; Content (%) [2, 4]: 99.86%; Related substance (%) [2, 4]: 0.18%; Appearance [2, 5]: Off-white; Content (%) [2, 5]: 100.61%; Related substance (%) [2, 5]: 0.19%; Appearance [2, 6]: Off-white; Content (%) [2, 6]: 99.84%; Related substance (%) [2, 6]: 0.16%; Appearance [2, 7]: Off-white; Content (%) [2, 7]: 100.47%; Related substance (%) [2, 7]: 0.17%
